Test results published in patent US20150315241A1, “Antibiotic Peptides” (priority 2007, published 2015).
Converted amounts (≈) assume the structure as drawn. Where two headings read alike, the source gives them in different places. Where a SMILES comes first, the peptide text is derived from it. Where no end group is shown, it is not given here. [ ]: non-standard residue; d: D form. Arg(NO2) = N=C(NCCC[C@H](N)C(=O)O)N[N+](=O)[O-]; NMeR = CN[C@@H](CCCNC(=N)N)C(=O)O; Hyp = O=C(O)[C@@H]1C[C@@H](O)CN1; Cit = NC(=O)NCCC[C@H](N)C(=O)O; Orn = NCCC[C@H](N)C(=O)O

How the values were obtained:
E. coli D31 = format: cell-based, Escherichia coli; details: D31, 20 h
Procedure: (§1) The minimal inhibition concentrations (MIC) of the apidaecin-derived peptides and peptide-derivatives were determined by a growth inhibition assay using a serial peptide dilution in sterilized round-bottom 96-well plates (polystyrene, U-bottom, Greiner Bio-One GmbH) with a final volume of 100 μL per well. The bacteria, e.g., E. coli BL21 A1, were grown in nutrient broth (NB, Carl Roth GmbH+Co. KG, Karlsruhe, Germany) at 37° C. over night. To each well of the 96-well plate, 50 μL of the overnight culture adjusted to 5×10^6 CFU/mL in 1% TSB were added. Lyophilized peptides and peptidomimetics were dissolved in 1% TSB (tryptic soy broth) or water to give a final concentration of 250 μg/mL. Fifty μL of the peptide or peptidomimetics solution were added to the first well of a row on the plate and mixed. Fifty μL of the first well containing the peptide solution were transferred to the second well, mixed and again 50 μL transferred to the next well and so on. Thereby, a two-fold dilution series was obtained starting at 250 μg/mL in the first well down to 120 ng/mL in the 12th well of a row giving a final peptide or peptidomimetics concentration from 125 μg/mL (well 1) to 60 ng/mL (well 12). Plates were incubated at 37° C. for 20 hrs. The absorbance was measured at 595 nm using a TECAN micro plate spectrophotometer (Tecan, Germany). All peptides and peptidomimetics were measured in triplicates. Sterilized water was used as a negative control.
(§2) The following multidrug resistant bacteria strains were tested: • Eschericha coli 45849 and D31, • Klebsiella pneumoniae 123132 and K6, • Salmonella typhi S5 and Salmonella enterica subsp. enterica serovar Typhimurium (ATCC 700408), • Rhizobium radiobacter (ATCC 15955 deposited as Agrobacterium tumefaciens).

[1] = tested on: K. Pneumonia K6, ATCC 700603; assay: Growth inhibition assay (MIC); format: cell-based, Klebsiella pneumoniae; details: multidrug resistant strain; 1% TSB, 37° C., 20 hrs
Procedure: as §1, §2

[2] = tested on: S. enterica subsp. Enterica serovar. typhi G10215 ATCC 700408; format: cell-based, Salmonella enterica; details: ATCC 700408, 20 h
Procedure: as §1, §2

E. coli BL 21 AI = assay: Growth inhibition assay (MIC); format: cell-based, Escherichia coli; details: 1% TSB, 37° C., 20 hrs
Procedure: as §1
(§3) The bacteria strains were tested: • Eschericha coli 1103, 10233, BL 21 AI, DC 2, • Klebsiella pneumoniae 681, • Micrococcus luteus ATCC 10240, • Mycobacterium vaccae • Bactillus subtillis 347.

M. luteus ATCC 10240 = format: cell-based, Micrococcus luteus
Procedure: as §1, §3

Row | Molecule | MIC E. coli D31 (E. coli D31) [µg/mL] | MIC K. Pneumonia K6, ATCC 700603 [1] [µg/mL] | MIC S. enterica subsp. Enterica serovar. typhi G10215 ATCC 700408 [2] [µg/mL] | MIC E. coli BL 21 AI (E. coli BL 21 AI) [µg/mL] | MIC M. luteus ATCC 10240 (M. luteus ATCC 10240; 1% TSB, 37° C., 20 hrs) [µg/mL] | MIC M. luteus ATCC 10240 (M. luteus ATCC 10240; ATCC 10240, 20 h) [µg/mL]
1 | CC[C@H](C)[C@H](NC(=O)[C@H](Cc1ccc(O)cc1)NC(=O)[C@@H](NC(=O)[C@@H]1CCCN1C(=O)[C@H](CCCNC(=N)N)NC(=O)[C@H](CC(N)=O)NC(=O)[C@H](CC(N)=O)NC(=O)[C@H](CCCN)NC(C)=O)C(C)C)C(=O)N1CCC[C@H]1C(=O)N[C@@H](CCC(N)=O)C(=O)N1CCC[C@H]1C(=O)N[C@@H](CCCNC(=N)N)C(=O)N1CCC[C@H]1C(=O)N1CCC[C@H]1C(=O)N[C@@H](Cc1c[nH]cn1)C(=O)N1CCC[C@H]1C(=O)N[C@@H](CCCNC(=N)N)C(=O)N[C@@H](CC(C)C)C(=O)OC [compound 50] (Ac-[Orn]NNRPVYIPQPRPPHPRL-OMe) | >128 | >128 | 32 (≈ 14.4 µM) |  |  | 
2 | CC[C@H](C)[C@H](NC(=O)[C@H](Cc1ccc(O)cc1)NC(=O)[C@@H](NC(=O)[C@@H]1CCCN1C(=O)[C@H](CCCNC(=N)N)NC(=O)[C@H](CC(N)=O)NC(=O)[C@H](CC(N)=O)NC(=O)[C@@H](N)CCCN)C(C)C)C(=O)N1CCC[C@H]1C(=O)N[C@@H](CCCN)C(=O)N1C[C@H](O)C[C@H]1C(=O)N[C@@H](CCCNC(=N)N)C(=O)N1CCC[C@H]1C(=O)N1CCC[C@H]1C(=O)N[C@@H](Cc1c[nH]cn1)C(=O)N1CCC[C@H]1C(=O)N[C@@H](CCCNC(=N)N)C(=O)N[C@@H](CC(C)C)C(N)=O [compound 102] (H-[Orn]NNRPVYIP[Orn][Hyp]RPPHPRL-NH2) |  |  |  | 1.95 (≈ 0.9 µM) | 1.95 (≈ 0.9 µM) | 
3 | CC[C@H](C)[C@H](NC(=O)[C@H](Cc1ccc(O)cc1)NC(=O)[C@@H](NC(=O)[C@@H]1CCCN1C(=O)[C@H](CCCNC(=N)N)NC(=O)[C@H](CC(N)=O)NC(=O)[C@H](CC(N)=O)NC(=O)[C@H](CCCN)NC(C)=O)C(C)C)C(=O)N1CCC[C@H]1C(=O)N[C@@H](CCCN)C(=O)N1C[C@H](O)C[C@H]1C(=O)N[C@@H](CCCNC(=N)N)C(=O)N1CCC[C@H]1C(=O)N1CCC[C@H]1C(=O)N[C@@H](Cc1c[nH]cn1)C(=O)N1CCC[C@H]1C(=O)N[C@@H](CCCNC(=N)N)C(=O)N[C@@H](CC(C)C)C(N)=O [compound 103] (Ac-[Orn]NNRPVYIP[Orn][Hyp]RPPHPRL-NH2) |  |  |  | 1.95 (≈ 0.883 µM) | 3.91 (≈ 1.77 µM) | 
4 | CC[C@H](C)[C@H](NC(=O)[C@H](Cc1ccc(O)cc1)NC(=O)[C@@H](NC(=O)[C@@H]1CCCN1C(=O)[C@H](CCCNC(=N)N)NC(=O)[C@H](CC(N)=O)NC(=O)[C@H](CC(N)=O)NC(=O)[C@@H](N)CCCN)C(C)C)C(=O)N1CCC[C@H]1C(=O)N[C@@H](CCCNC(=N)N)C(=O)N1CCC[C@H]1C(=O)N[C@@H](CCCNC(=N)N)C(=O)N1CCC[C@H]1C(=O)N1CCC[C@H]1C(=O)N[C@@H](Cc1c[nH]cn1)C(=O)N1CCC[C@H]1C(=O)N[C@@H](CCCNC(N)=O)C(=O)N[C@@H](CC(C)C)C(N)=O [compound 138] (H-[Orn]NNRPVYIPRPRPPHP[Cit]L-NH2) |  |  |  | 64 (≈ 29.2 µM) |  | 64 (≈ 29.2 µM)
5 | CC[C@H](C)[C@H](NC(=O)[C@H](Cc1ccc(O)cc1)NC(=O)[C@@H](NC(=O)[C@@H]1CCCN1C(=O)[C@H](CCCNC(=N)N)NC(=O)[C@H](CC(N)=O)NC(=O)[C@H](CC(N)=O)NC(=O)CNC(C)=O)C(C)C)C(=O)N1CCC[C@H]1C(=O)N[C@@H](CCC(N)=O)C(=O)N1CCC[C@H]1C(=O)N[C@@H](CCCNC(=N)N)C(=O)N1CCC[C@H]1C(=O)N1CCC[C@H]1C(=O)N[C@@H](Cc1c[nH]cn1)C(=O)N1CCC[C@H]1C(=O)N[C@@H](CCCNC(N)=O)C(=O)N[C@@H](CC(C)C)C(N)=O [compound 148] (Ac-GNNRPVYIPQPRPPHP[Cit]L-NH2) |  |  |  | >125 |  | >125
6 | CC[C@H](C)[C@H](NC(=O)[C@H](Cc1ccc(O)cc1)NC(=O)[C@@H](NC(=O)[C@@H]1CCCN1C(=O)[C@H](CCCNC(=N)N)NC(=O)[C@H](CC(N)=O)NC(=O)[C@H](CC(N)=O)NC(=O)[C@H](CCCN)NC(C)=O)C(C)C)C(=O)N1CCC[C@H]1C(=O)N[C@@H](CCCNC(=N)N)C(=O)N1CCC[C@H]1C(=O)N[C@@H](CCCNC(=N)N)C(=O)N1CCC[C@H]1C(=O)N1CCC[C@H]1C(=O)N[C@@H](Cc1c[nH]cn1)C(=O)N1CCC[C@H]1C(=O)N[C@@H](CCCNC(N)=O)C(=O)N[C@@H](CC(C)C)C(N)=O [compound 150] (Ac-[Orn]NNRPVYIPRPRPPHP[Cit]L-NH2) |  |  |  | 32 (≈ 14.3 µM) |  | 32 (≈ 14.3 µM)
7 | CC[C@H](C)[C@H](NC(=O)[C@H](Cc1ccc(O)cc1)NC(=O)[C@@H](NC(=O)[C@@H]1CCCN1C(=O)[C@H](CCCNC(=N)N)NC(=O)[C@H](CC(N)=O)NC(=O)[C@H](CC(N)=O)NC(=O)[C@H](CCCN)NC(C)=O)C(C)C)C(=O)N1CCC[C@H]1C(=O)N[C@@H](CCCNC(=N)N)C(=O)N1CCC[C@H]1C(=O)N[C@@H](CCCNC(=N)N)C(=O)N1CCC[C@H]1C(=O)N1CCC[C@H]1C(=O)N[C@@H](Cc1c[nH]cn1)C(=O)N1CCC[C@H]1C(=O)N[C@H](CCCNC(=N)N)C(=O)N[C@@H](CC(C)C)C(N)=O [compound 152] (Ac-[Orn]NNRPVYIPRPRPPHP[dR]L-NH2) |  |  |  | 32 (≈ 14.3 µM) |  | 32 (≈ 14.3 µM)
8 | CC[C@H](C)[C@H](NC(=O)[C@H](Cc1ccc(O)cc1)NC(=O)[C@@H](NC(=O)[C@@H]1CCCN1C(=O)[C@H](CCCNC(=N)N)NC(=O)[C@H](CC(N)=O)NC(=O)[C@H](CC(N)=O)NC(=O)[C@H](CCCN)NC(C)=O)C(C)C)C(=O)N1CCC[C@H]1C(=O)N[C@@H](CCCNC(=N)N)C(=O)N1CCC[C@H]1C(=O)N[C@@H](CCCNC(=N)N)C(=O)N1CCC[C@H]1C(=O)N1CCC[C@H]1C(=O)N[C@@H](Cc1c[nH]cn1)C(=O)N1CCC[C@H]1C(=O)N(C)[C@@H](CCCNC(=N)N)C(=O)N[C@@H](CC(C)C)C(N)=O [compound 153] (Ac-[Orn]NNRPVYIPRPRPPHP[NMeR]L-NH2) |  |  |  | 16 (≈ 7.12 µM) |  | 32 (≈ 14.2 µM)
9 | CC[C@H](C)[C@H](NC(=O)[C@H](Cc1ccc(O)cc1)NC(=O)[C@@H](NC(=O)[C@@H]1CCCN1C(=O)[C@H](CCCNC(=N)N)NC(=O)[C@H](CC(N)=O)NC(=O)[C@H](CC(N)=O)NC(=O)[C@H](CCCN)NC(C)=O)C(C)C)C(=O)N1CCC[C@H]1C(=O)N[C@@H](CCCNC(=N)N)C(=O)N1CCC[C@H]1C(=O)N[C@@H](CCCNC(=N)N)C(=O)N1CCC[C@H]1C(=O)N1CCC[C@H]1C(=O)N[C@@H](Cc1c[nH]cn1)C(=O)N1CCC[C@H]1C(=O)N[C@@H](CCCNC(N)=N[N+](=O)[O-])C(=O)N[C@@H](CC(C)C)C(N)=O [compound 154] (Ac-[Orn]NNRPVYIPRPRPPHP[Arg(NO2)]L-NH2) |  |  |  | 16 (≈ 7.02 µM) |  | 32 (≈ 14 µM)
10 | GNNRPVYIPQPRPPHPL-NH2 [compound 43] | >128 | >64 | >64 |  |  | 
11 | GNNRPVYIPQPRPPHPRF-NH2 [compound 44] | 128 | 64 | 4 |  |  | 
12 | H-GNNRPVYIAQPRPPHPAL-NH2 [compound 136] |  |  |  | >125 |  | >125
13 | H-GNNRPVYIAQPRPPHPRL-NH2 [compound 140] |  |  |  | >125 |  | 125
14 | H-GNNRPVYIPQPRPPHPAL-NH2 [compound 139] |  |  |  | >125 |  | >125
15 | H-GNNRPVYIPQPRPPHPR-OH [compound 144] |  |  |  | >125 |  | >125
16 | H-GNNRPVYIPRPRPPHPRLV-OH [compound 69] |  |  |  | 7.81 |  | 0.24
17 | H-NNRPVYIPQPRPPHPRI-NH2 [compound 92] |  |  |  | 3.91 |  | 31.25
18 | H-RPVYIPQPRPPHPRL-NH2 [compound 142] |  |  |  | 125 |  | 125
